{"source": "patent US11850250B2", "about": "“Use of homoharringtonine in preparation of betacoronavirus replication inhibitor in human” (priority 2020, dated 2023)", "key": {"60 human cell lines": {"system": "60 human cell lines", "experiment": "Cytotoxicity of HHT in 60 human cell lines", "conditions": "1 μM (or lower) for 48 hours; cell lines other than the few that died obviously, of 60 human cell lines"}, "SARS-CoV-2": {"system": "SARS-CoV-2", "experiment": "microbe, parasite or virus in culture", "format": "cell-based", "conditions": "Severe acute respiratory syndrome coronavirus 2, Vero C1008, read-out: Inhibition rate (%)"}}}
{"smiles": "COC(=O)C[C@](O)(CCCC(C)(C)O)C(=O)O[C@@H]1C(OC)=C[C@]23CCCN2CCc2cc4c(cc2[C@H]13)OCO4", "note": "[HHT, Homoharringtonine]", "values": [{"measurement": "cell viability", "setting": "60 human cell lines", "result": "about 100%"}, {"measurement": "inhibition at 0.186 µM", "setting": "SARS-CoV-2; drug concentration 0.186 μM", "result": "31.7 ± 7.64", "unit": "%"}, {"measurement": "inhibition at 0.375 µM", "setting": "SARS-CoV-2; drug concentration 0.375 μM", "result": "60 ± 8.66", "unit": "%"}, {"measurement": "inhibition at 0.75 µM", "setting": "SARS-CoV-2; drug concentration 0.75 μM", "result": "86.7 ± 2.89", "unit": "%"}, {"measurement": "inhibition at 1.5 µM", "setting": "SARS-CoV-2; drug concentration 1.50 μM", "result": "93.3 ± 2.89", "unit": "%"}]}
